Measurements: US11787785B2 (NOVARTIS AG, priority 2021, dated 2023)

Assays:
[1] = target: T1, WIZ protein (HiBit-WIZ fusion protein) (Homo sapiens, UniProt O95785+Q96SW2); assay: Quantification of WIZ protein levels in HiBit tag fusion protein assay (WIZ HiBit assay in 293T cells); format: cell-based; parameters: remaining activity / Dmax: dose or concentration left out as unconfirmed; conditions: for Dmax at 25 µM: 100 − Amax; for Dmax at 25 µM / remaining activity at 25 µM: 293T cells; for remaining activity at 25 µM: DMSO-normalized, curve-fitted percentage of WIZ-HiBit remaining at 25 uM; for DC50: WIZ HiBit assay in 293T cells, 10-point, 5-fold dose response, highest concentration 25 μM, about 18 hours, read-out: WIZ AC50
T1 construct: expressed in transfected cells
T1 sequence (O95785 whole entry, the tested form may be a part): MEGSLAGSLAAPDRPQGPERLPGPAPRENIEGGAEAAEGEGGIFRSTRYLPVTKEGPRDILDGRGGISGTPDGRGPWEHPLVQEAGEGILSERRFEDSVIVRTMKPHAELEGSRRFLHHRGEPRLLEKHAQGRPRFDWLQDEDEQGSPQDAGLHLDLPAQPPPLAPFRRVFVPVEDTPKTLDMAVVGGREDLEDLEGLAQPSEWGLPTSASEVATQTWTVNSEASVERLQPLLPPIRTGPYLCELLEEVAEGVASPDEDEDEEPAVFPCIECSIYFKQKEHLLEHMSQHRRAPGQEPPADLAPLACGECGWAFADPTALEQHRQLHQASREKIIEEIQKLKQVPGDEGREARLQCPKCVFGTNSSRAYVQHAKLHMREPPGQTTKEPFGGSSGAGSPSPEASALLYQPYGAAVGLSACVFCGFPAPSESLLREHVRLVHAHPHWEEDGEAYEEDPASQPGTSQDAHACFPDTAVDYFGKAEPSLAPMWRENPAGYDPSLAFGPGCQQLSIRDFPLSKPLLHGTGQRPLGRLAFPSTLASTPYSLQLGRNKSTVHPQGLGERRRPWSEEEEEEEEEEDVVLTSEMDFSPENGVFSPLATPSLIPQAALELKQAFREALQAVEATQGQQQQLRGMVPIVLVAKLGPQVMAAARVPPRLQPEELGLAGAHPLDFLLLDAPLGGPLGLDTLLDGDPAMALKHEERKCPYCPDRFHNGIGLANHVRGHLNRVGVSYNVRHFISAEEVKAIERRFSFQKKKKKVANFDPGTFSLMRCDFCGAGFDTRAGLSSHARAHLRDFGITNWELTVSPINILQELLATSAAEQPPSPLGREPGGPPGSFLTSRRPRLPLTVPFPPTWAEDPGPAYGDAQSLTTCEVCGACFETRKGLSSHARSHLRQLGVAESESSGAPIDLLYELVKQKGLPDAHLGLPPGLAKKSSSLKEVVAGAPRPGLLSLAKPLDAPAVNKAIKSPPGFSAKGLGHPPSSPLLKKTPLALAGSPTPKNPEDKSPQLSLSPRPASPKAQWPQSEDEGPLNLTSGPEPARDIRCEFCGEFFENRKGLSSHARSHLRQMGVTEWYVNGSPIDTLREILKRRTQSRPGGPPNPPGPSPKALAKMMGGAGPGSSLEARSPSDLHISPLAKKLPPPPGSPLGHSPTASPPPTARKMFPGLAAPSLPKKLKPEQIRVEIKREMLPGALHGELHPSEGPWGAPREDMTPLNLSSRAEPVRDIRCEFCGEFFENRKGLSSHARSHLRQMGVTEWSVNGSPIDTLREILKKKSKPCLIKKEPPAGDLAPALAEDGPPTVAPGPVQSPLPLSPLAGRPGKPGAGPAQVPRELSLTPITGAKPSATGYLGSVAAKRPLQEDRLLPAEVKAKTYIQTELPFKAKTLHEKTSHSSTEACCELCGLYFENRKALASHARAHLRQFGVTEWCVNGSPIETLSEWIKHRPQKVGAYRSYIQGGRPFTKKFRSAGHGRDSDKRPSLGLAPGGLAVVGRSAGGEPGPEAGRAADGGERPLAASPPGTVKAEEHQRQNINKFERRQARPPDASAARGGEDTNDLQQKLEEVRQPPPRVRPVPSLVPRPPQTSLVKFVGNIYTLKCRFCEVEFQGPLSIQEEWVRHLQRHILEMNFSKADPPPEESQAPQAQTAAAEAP
T1 sequence (Q96SW2 whole entry, the tested form may be a part): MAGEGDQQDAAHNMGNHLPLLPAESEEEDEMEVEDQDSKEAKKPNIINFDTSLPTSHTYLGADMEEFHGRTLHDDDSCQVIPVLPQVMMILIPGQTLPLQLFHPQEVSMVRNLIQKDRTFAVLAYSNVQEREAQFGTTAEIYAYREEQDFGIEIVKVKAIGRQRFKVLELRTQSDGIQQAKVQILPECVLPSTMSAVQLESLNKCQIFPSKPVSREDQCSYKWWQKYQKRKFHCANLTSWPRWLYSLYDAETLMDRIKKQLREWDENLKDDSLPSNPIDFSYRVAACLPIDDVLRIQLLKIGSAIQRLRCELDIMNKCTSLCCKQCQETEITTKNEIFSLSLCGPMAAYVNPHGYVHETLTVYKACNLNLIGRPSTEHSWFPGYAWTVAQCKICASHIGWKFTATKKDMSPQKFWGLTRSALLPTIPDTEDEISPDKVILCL
T1 sequence (Q16531 whole entry partner, the tested form may be a part): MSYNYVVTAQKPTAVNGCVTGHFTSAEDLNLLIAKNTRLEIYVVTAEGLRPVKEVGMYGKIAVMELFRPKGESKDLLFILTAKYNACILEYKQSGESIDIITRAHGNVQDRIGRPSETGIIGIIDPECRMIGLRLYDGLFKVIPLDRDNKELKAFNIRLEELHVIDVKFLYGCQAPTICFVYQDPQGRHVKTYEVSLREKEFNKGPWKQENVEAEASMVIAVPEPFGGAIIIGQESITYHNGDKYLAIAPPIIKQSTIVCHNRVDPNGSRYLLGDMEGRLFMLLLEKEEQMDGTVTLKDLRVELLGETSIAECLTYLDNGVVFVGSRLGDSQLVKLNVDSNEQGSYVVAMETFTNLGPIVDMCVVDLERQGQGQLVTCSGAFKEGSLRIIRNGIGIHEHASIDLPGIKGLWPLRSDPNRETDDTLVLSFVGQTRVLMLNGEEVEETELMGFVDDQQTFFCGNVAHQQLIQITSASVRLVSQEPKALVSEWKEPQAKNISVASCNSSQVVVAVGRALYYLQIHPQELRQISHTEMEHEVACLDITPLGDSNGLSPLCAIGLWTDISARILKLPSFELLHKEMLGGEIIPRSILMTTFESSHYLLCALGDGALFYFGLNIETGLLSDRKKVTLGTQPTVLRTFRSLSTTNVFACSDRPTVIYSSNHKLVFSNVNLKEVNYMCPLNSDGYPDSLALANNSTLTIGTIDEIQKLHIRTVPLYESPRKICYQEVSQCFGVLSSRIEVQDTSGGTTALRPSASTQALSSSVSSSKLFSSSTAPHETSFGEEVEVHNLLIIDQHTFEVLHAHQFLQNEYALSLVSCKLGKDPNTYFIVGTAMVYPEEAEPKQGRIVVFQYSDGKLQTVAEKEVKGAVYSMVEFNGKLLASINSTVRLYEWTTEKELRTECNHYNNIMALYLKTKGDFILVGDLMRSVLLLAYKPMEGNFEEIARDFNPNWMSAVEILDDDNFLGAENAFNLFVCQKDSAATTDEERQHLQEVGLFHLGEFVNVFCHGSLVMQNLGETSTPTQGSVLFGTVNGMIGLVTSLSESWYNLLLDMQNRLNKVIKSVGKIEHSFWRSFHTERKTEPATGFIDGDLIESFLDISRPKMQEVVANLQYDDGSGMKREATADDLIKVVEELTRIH
How it was run: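 Luminescence after LgBit complementation quantified remaining HiBit-WIZ in lysates of single-copy stable 293T lines. Cells dosed ~18 h at 37 °C with 10-point, 5-fold dilutions (highest 25 μM); DMSO set to 100%, fitted curve gave % remaining at 25 μM (Amax).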

Fetal Hemoglobin (HbF) = assay: Small molecule HbF induction assay (mPB CD34+ cells erythroid differentiated, flow cytometry); format: cell-based; conditions: Homo sapiens, 168 h; for Emax: 7 days with compound, baseline DMSO approximately 30-40%, read-out: HbF Amax (highest percentage of cells staining positive for HbF in the fitted dose-response curve); for EC50: erythroid differentiated in presence of compound for 7 days, flow cytometry
Experimental: Cryopreserved primary human CD34^+ hematopoietic stem and progenitor cells were obtained from AllCells, LLC. The CD34^+ cells were isolated from the peripheral blood of healthy donors after mobilization by administration of granulocyte colony-stimulating factor. Cells were differentiated ex vivo toward the erythroid lineage using a 2-phase culture method. In the first phase, cells were cultured in StemSpan™ Serum-Free Expansion Media (SFEM) ([…] Technologies Inc.) supplemented with rhSCF (50 ng/mL, Peprotech®, Inc.), rhIL-6 (50 ng/mL, Peprotech®, Inc.), rhIL-3 (50 ng/mL, Peprotech®, Inc.), and rhFlt3L (50 ng/mL, Peprotech®, Inc.), and 1× antibiotic-antimycotic (Life Technologies, Thermo Fisher Scientific) for 6 days at 37° C. with 5% CO2. During the second phase, cells were cultured in erythroid differentiation media at 5,000 cells/mL in the presence of compound for 7 days at 37° C. with 5% CO2. Erythroid Differentiation Media is comprised of IMDM (Life Technologies) supplemented with insulin (10 μg/mL, Sigma Aldrich), heparin (2 U/mL Sigma Aldrich), holo-transferrin (330 μg/mL, Sigma Aldrich), human serum AB (5%, Sigma Aldrich), hydrocortisone (1 μM, […] Technologies), rhSCF (100 ng/mL, Peprotech®, Inc.), rhIL-3 (5 ng/mL, Peprotech®, Inc.), rhEPO (3 U/mL, Peprotech®, Inc.), and 1× antibiotic-antimycotic. All compounds were dissolved and diluted into dimethylsulfoxide (DMSO) and were added to culture media for a final concentration of 0.3% DMSO for testing in a 7-point, 1:3 dilution series starting at 30 uM.
Staining and Flow Cytometry
For viability analysis, samples were washed and resuspended in phosphate-buffered saline (PBS) and stained with LIVE/DEAD™ Fixable Violet Dead Cell Stain Kit (Life Technologies, L34963) for 20 minutes. Cells were then washed again with PBS and resuspended in PBS supplemented with 2% fetal bovine serum (FBS), and 2 mM EDTA to prepare for cell surface marker analysis. Cells were labeled with allophycocyanin-conjugated CD235a (1:100, BD Biosciences, 551336) and Brilliant Violet-conjugated CD71 (1:100, BD Biosciences, 563767) antibodies for 20 minutes. For analysis of cytoplasmic Fetal Hemoglobin (HbF), cells were fixed and permeabilized using the Fixation (BioLegend®, 420801) and Permeabilization Wash (BioLegend®, 421002) Buffers according to the manufacturer's protocol. During the permeabilization step, cells were stained with phycoerythrin-conjugated or FITC-conjugated HbF-specific antibody (1:10-1:25, Invitrogen™, MHFH04-4) for 30 minutes. Stained cells were washed with phosphate-buffered saline before analysis on the FACSCanto™ II flow cytometer or LSRFortessa™ (BD Biosciences). Data analysis was performed with FIowJo™ Software (BD Biosciences).
HbF Induction Activity of Compounds (Table 2)
mPB CD34+ cells were expanded for 6 days, then erythroid differentiated in the presence of compound for 7 days. Cells were fixed, stained and analyzed by flow cytometry. […] HbF Amax=the highest percentage of cells staining positive for HbF (% HbF+ cells) in the fitted dose-response curve. The baseline % HbF+ cells for DMSO-treated cells is approximately 30-40%.

[2] = HEK-293T, read-out: % degradation of WIZ (100 − Amax)

Compound: O=C1CCN(c2cnn3ccc(CC4CCN(Cc5cccnc5)CC4)cc23)C(=O)N1 [Example 17, 1-(5-((1-(pyridin-3-ylmethyl)piperidin-4-yl)methyl)pyrazolo[1,5-a]pyridin-3-yl)dihydropyrimidine-2,4(1H,3H)-dione]
- Dmax at 25 µM [1, 2]: 82%
- remaining activity at 25 µM ([1]; HEK-293T, read-out: WIZ Amax): 18%
- DC50 [1]: 48 nM
- Emax (Fetal Hemoglobin (HbF)): 80%
- EC50 (Fetal Hemoglobin (HbF)): 266 nM

Compound: CC(C)CN1CCC(Cc2ccn3ncc(N4CCC(=O)NC4=O)c3c2)CC1 [Example 109, 1-(5-((1-isobutylpiperidin-4-yl)methyl)pyrazolo[1,5-a]pyridin-3-yl)dihydropyrimidine-2,4(1H,3H)-dione]
- Dmax at 25 µM [1, 2]: 82%
- remaining activity at 25 µM ([1]; HEK-293T, read-out: WIZ Amax): 18%
- DC50 [1]: 39 nM
- Emax (Fetal Hemoglobin (HbF)): 77%
- EC50 (Fetal Hemoglobin (HbF)): 129 nM

Compound: C[C@H]1C[C@H](Cc2ccn3ncc(N4CCC(=O)NC4=O)c3c2)CCN1CC1CCC(F)(F)CC1 [Example 141, 1-(5-(((2S,4R)-1-((4,4-difluorocyclohexyl)methyl)-2-methylpiperidin-4-yl)methyl)pyrazolo[1,5-a]pyridin-3-yl)dihydropyrimidine-2,4(1H,3H)-dione]
- Dmax at 25 µM [1, 2]: 91%
- remaining activity at 25 µM ([1]; HEK-293T, read-out: WIZ Amax): 9%
- DC50 [1]: 2 nM
- Emax (Fetal Hemoglobin (HbF)): 90%
- EC50 (Fetal Hemoglobin (HbF)): 6 nM

Compound: C[C@H]1C[C@H](Cc2ccn3ncc(N4CCC(=O)NC4=O)c3c2)CCN1CC1CCOCC1 [Example 142]
- Dmax at 25 µM [1, 2]: 89%
- remaining activity at 25 µM ([1]; HEK-293T, read-out: WIZ Amax): 11%
- DC50 [1]: 11 nM
- Emax (Fetal Hemoglobin (HbF)): 89%
- EC50 (Fetal Hemoglobin (HbF)): 38 nM

Compound: CC(C)CN1CC[C@@H](Cc2ccn3ncc(N4CCC(=O)NC4=O)c3c2)C[C@@H]1C [Example 145]
- Dmax at 25 µM [1, 2]: 84%
- remaining activity at 25 µM ([1]; HEK-293T, read-out: WIZ Amax): 16%
- DC50 [1]: 25 nM
- Emax (Fetal Hemoglobin (HbF)): 76%
- EC50 (Fetal Hemoglobin (HbF)): 30 nM

Compound: O=C1CCN(c2cnn3ccc(CN4CCN(CC5CCCCC5)CC4)cc23)C(=O)N1 [Example 156, 1-(5-((4-(cyclohexylmethyl)piperazin-1-yl)methyl)pyrazolo[1,5-a]pyridin-3-yl)dihydropyrimidine-2,4(1H,3H)-dione]
- Dmax [1, 2]: 86%
- remaining activity ([1]; HEK-293T, read-out: WIZ Amax): 14%
- DC50 [1]: 23 nM
- Emax (Fetal Hemoglobin (HbF)): 81%
- EC50 (Fetal Hemoglobin (HbF)): 12 nM

Compound: O=C1CCN(c2cnn3ccc(CN4CCN(CC5CCOCC5)CC4)cc23)C(=O)N1 [Example 160]
- Dmax at 25 µM [1, 2]: 82%
- remaining activity at 25 µM ([1]; HEK-293T, read-out: WIZ Amax): 18%
- DC50 [1]: 45 nM
- Emax (Fetal Hemoglobin (HbF)): 84%
- EC50 (Fetal Hemoglobin (HbF)): 999 nM

Compound: CO[C@H]1CC[C@H](CN2CCN(Cc3ccn4ncc(N5CCC(=O)NC5=O)c4c3)CC2)CC1 [Example 179, 1-(5-((4-(((1r,4r)-4-methoxycyclohexyl)methyl)piperazin-1-yl)methyl)pyrazolo[1,5-a]pyridin-3-yl)dihydropyrimidine-2,4(1H,3H)-dione]
- Dmax at 25 µM [1, 2]: 82%
- remaining activity at 25 µM ([1]; HEK-293T, read-out: WIZ Amax): 18%
- DC50 [1]: 49 nM
- Emax (Fetal Hemoglobin (HbF)): 79%
- EC50 (Fetal Hemoglobin (HbF)): 74 nM

Compound: CC(C)CN1CCN(Cc2ccn3ncc(N4CCC(=O)NC4=O)c3c2)C[C@@H]1C [Example 203, (S)-1-(5-((4-isobutyl-3-methylpiperazin-1-yl)methyl)pyrazolo[1,5-a]pyridin-3-yl)dihydropyrimidine-2,4(1H,3H)-dione]
- Dmax at 25 µM [1, 2]: 84%
- remaining activity at 25 µM ([1]; HEK-293T, read-out: WIZ Amax): 16%
- DC50 [1]: 25 nM
- Emax (Fetal Hemoglobin (HbF)): 82%
- EC50 (Fetal Hemoglobin (HbF)): 45 nM

Compound: C[C@H]1CN(Cc2ccn3ncc(N4CCC(=O)NC4=O)c3c2)CCN1CC1CCC(F)(F)CC1 [Example 207]
- Dmax at 25 µM [1, 2]: 86%
- remaining activity at 25 µM ([1]; HEK-293T, read-out: WIZ Amax): 14%
- DC50 [1]: 14 nM
- Emax (Fetal Hemoglobin (HbF)): 85%
- EC50 (Fetal Hemoglobin (HbF)): 89 nM

Compound: CO[C@H]1CC[C@H](CN2CCN(Cc3ccn4ncc(N5CCC(=O)NC5=O)c4c3)C[C@@H]2C)CC1 [Example 210, 1-(5-(((S)-4-(((1r,4S)-4-methoxycyclohexyl)methyl)-3-methylpiperazin-1-yl)methyl)pyrazolo[1,5-a]pyridin-3-yl)dihydropyrimidine-2,4(1H,3H)-dione]
- Dmax at 25 µM [1, 2]: 86%
- remaining activity at 25 µM ([1]; HEK-293T, read-out: WIZ Amax): 14%
- DC50 [1]: 16 nM
- Emax (Fetal Hemoglobin (HbF)): 86%
- EC50 (Fetal Hemoglobin (HbF)): 64 nM
